Experimental data published in publication PMC3100226 (Journal of Pain Research, 2011).

Assays:
GABA-A (muscimol site) = assay: Receptor characterization panel: GABA-A muscimol site binding; details: 10 μM; [3H]Muscimol; cerebral cortex/rat
human mTOR kinase = human mTOR kinase (Homo sapiens, UniProt P42345); assay: Enzyme characterization panel: mTOR kinase; type: biochemical; details: data not shown
TNF-α converting enzyme = TNF-α converting enzyme (Homo sapiens, UniProt P78536); assay: Enzyme characterization panel: TNF-α converting enzyme; type: biochemical; details: data not shown
TNF-α converting enzyme, sequence (P78536 215-824, species assumed): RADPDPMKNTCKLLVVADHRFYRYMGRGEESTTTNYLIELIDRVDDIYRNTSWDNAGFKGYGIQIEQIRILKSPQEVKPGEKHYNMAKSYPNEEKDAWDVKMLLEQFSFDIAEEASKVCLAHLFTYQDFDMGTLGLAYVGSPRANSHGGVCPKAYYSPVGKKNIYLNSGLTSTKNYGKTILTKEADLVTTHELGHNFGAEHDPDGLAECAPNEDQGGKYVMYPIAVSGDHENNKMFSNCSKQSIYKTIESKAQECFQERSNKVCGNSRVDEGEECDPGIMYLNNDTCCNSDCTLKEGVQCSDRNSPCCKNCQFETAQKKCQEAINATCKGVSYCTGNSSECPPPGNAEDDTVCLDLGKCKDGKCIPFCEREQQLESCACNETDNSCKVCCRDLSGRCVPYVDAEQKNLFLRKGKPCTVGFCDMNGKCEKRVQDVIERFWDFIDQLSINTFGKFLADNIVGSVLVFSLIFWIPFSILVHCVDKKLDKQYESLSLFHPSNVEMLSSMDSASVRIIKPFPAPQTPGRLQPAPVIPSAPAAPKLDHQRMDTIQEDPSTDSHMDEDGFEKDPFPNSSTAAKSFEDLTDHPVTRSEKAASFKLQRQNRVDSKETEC

[1] = system: STZ-induced diabetic pain in rats; assay: Streptozotocin-induced neuropathic; type: in vivo; details: rat, 60 mg/kg oral
human recombinant MAO-A = human recombinant MAO-A (Homo sapiens, UniProt P21397); assay: Human recombinant MAO-A functional assay; type: biochemical
human recombinant MAO-A, sequence (P21397 whole entry): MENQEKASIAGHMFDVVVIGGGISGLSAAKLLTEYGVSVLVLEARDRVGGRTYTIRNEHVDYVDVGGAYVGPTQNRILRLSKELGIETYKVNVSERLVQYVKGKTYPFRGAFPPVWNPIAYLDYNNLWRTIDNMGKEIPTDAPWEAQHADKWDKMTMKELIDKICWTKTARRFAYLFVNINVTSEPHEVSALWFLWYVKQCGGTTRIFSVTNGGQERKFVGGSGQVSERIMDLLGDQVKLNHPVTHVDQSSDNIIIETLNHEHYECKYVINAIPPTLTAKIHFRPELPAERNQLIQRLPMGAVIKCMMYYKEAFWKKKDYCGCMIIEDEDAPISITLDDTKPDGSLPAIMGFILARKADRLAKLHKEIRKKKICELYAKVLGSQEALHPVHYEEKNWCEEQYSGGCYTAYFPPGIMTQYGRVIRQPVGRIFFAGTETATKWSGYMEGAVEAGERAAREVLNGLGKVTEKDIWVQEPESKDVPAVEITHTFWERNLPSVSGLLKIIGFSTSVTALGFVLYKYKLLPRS

[2] = system: endogenous norepinephrine (NE) levels; assay: In vivo quantification of endogenous norepinephrine tissue levels; details: rat
I2 = assay: Receptor characterization panel: I2 binding; details: 10 μM; [3H]Idazoxan (+1 μM yohimbine); cerebral cortex/rat
[3] = system: CFA-induced inflammatory pain in rats; assay: CFA-induced mechanical hyperalgesia; type: in vivo; details: rat; p.o., 24 hours after CFA
D2 = D2 (Rattus norvegicus, UniProt P61169); assay: Receptor characterization panel: D2 binding; details: read-out: 10 μM CR4056 (% effect), inhibition of specific binding
D2, sequence (P61169 whole entry): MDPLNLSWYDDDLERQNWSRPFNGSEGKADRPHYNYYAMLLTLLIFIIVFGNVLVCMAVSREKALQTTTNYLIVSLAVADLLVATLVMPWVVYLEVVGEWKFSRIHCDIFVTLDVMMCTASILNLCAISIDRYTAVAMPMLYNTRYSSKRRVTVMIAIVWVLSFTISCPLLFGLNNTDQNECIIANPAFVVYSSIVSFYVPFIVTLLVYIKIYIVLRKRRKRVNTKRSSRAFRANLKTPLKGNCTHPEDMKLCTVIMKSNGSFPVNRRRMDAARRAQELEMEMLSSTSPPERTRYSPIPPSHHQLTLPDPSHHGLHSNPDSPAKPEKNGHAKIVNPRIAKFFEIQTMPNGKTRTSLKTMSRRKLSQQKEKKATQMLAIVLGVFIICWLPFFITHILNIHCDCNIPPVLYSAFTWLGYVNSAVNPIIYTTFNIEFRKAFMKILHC

Sigma (σ1 + σ2) = assay: Receptor characterization panel: sigma binding; details: [3H]DTG, whole brain/rat
CCK2 = target: T1, CCK2 (Cavia porcellus, UniProt H0VZC5); assay: Receptor characterization panel: CCK2 binding; design: species or system guinea pig; details: read-out: 10 μM CR4056 (% effect), inhibition of specific binding
T1 sequence (H0VZC5 1-426): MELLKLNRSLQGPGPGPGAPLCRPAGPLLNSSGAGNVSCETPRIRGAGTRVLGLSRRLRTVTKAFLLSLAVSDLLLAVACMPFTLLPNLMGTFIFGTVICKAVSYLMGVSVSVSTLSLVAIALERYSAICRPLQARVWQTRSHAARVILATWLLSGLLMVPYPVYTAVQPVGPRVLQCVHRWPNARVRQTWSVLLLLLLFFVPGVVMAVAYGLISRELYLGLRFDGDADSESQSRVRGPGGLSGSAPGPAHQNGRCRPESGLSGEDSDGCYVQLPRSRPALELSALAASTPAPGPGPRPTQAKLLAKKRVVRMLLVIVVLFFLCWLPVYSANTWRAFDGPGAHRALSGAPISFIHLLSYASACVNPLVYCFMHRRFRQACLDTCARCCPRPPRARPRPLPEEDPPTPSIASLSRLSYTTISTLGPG

MAO-B = target: T2, MAO-B (Rattus norvegicus, UniProt P19643); assay: MAO-B binding
T2 sequence (P19643 1-520): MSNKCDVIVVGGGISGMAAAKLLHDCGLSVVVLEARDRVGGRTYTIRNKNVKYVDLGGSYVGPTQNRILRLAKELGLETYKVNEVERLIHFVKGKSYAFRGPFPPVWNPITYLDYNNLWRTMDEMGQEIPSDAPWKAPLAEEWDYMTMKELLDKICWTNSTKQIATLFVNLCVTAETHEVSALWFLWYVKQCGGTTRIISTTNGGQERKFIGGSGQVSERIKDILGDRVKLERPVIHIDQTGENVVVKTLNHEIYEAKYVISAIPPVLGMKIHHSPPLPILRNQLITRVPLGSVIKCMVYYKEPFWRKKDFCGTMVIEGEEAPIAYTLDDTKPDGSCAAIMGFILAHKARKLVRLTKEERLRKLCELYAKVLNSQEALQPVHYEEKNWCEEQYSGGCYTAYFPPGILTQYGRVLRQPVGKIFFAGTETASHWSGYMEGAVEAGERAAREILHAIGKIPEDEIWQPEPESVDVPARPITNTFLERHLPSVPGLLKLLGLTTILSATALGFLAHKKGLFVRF

[4] = target: inducible NO synthase (iNOS) (Homo sapiens, UniProt P35228); assay: Enzyme characterization panel: iNOS; type: biochemical; details: data not shown
inducible NO synthase (iNOS), sequence (P35228 whole entry, species assumed): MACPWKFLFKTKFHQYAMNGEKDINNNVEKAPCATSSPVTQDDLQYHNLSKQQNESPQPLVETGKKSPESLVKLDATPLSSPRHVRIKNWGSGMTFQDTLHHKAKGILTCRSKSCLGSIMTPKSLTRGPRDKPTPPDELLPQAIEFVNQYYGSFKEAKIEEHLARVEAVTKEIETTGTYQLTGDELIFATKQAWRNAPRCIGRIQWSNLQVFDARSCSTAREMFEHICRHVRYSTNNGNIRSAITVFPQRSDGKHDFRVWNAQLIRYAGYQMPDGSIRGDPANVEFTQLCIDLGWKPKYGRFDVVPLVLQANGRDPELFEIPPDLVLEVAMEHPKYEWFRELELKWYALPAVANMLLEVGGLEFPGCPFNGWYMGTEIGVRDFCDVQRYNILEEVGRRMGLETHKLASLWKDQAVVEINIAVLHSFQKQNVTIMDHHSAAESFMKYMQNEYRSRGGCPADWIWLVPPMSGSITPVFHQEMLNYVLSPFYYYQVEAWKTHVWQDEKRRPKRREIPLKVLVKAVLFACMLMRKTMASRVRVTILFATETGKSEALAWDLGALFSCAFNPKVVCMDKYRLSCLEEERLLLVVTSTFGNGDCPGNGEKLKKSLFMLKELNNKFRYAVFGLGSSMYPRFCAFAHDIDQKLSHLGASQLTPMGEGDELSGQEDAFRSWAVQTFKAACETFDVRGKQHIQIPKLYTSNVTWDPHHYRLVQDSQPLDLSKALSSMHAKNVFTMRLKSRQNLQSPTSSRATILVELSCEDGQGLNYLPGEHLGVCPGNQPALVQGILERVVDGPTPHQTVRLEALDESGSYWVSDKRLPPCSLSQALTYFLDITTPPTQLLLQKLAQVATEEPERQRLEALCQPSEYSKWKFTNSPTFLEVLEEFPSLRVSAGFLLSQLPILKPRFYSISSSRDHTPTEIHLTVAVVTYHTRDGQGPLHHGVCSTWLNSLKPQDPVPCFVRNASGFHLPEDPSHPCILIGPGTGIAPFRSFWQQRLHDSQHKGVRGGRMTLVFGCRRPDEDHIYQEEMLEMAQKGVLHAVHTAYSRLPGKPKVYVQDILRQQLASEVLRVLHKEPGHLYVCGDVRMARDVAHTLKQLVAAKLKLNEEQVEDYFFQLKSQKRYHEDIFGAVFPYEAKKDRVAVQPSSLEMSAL

conscious dog = assay: Safety pharmacology, cardiovascular, conscious dog; type: in vivo; details: supra-pharmacological doses
5-HT3 = 5-HT3 (Rattus norvegicus, UniProt P35563); assay: Receptor characterization panel: 5-HT3 binding; details: read-out: 10 μM CR4056 (% effect), inhibition of specific binding
5-HT3, sequence (P35563 24-483): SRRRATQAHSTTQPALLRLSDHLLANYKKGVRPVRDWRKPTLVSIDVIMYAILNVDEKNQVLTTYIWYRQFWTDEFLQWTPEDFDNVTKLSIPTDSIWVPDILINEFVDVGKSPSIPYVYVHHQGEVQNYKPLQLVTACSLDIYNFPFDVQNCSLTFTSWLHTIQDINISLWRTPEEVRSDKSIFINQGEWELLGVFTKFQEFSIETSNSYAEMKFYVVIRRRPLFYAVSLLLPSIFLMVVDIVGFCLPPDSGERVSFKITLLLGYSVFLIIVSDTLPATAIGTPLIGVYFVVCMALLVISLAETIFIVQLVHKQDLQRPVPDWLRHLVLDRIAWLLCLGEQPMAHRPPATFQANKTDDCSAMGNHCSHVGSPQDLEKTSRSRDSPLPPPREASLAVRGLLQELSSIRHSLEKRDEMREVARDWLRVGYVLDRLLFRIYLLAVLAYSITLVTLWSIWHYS

[5] = system: capsaicin-induced neurogenic/inflammatory pain in rats; assay: Capsaicin-induced mechanical hyperalgesia; type: in vivo; details: rat
[6] = target: catechol-O-methyl transferase (COMT) (Homo sapiens, UniProt P21964); assay: Enzyme characterization panel: COMT; type: biochemical; details: data not shown
catechol-O-methyl transferase (COMT), sequence (P21964 whole entry, species assumed): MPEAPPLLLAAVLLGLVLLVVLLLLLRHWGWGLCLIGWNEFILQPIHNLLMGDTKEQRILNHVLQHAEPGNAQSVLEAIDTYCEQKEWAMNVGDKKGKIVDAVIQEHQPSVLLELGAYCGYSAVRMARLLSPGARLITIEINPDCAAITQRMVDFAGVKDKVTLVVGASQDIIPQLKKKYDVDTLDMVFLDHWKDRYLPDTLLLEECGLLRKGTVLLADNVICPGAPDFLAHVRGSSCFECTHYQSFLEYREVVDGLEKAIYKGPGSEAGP

human recombinant MAO-B = target: T3, human recombinant MAO-B (Homo sapiens, UniProt P27338); assay: Human recombinant MAO-B functional assay; type: biochemical
T3 sequence (P27338 1-520): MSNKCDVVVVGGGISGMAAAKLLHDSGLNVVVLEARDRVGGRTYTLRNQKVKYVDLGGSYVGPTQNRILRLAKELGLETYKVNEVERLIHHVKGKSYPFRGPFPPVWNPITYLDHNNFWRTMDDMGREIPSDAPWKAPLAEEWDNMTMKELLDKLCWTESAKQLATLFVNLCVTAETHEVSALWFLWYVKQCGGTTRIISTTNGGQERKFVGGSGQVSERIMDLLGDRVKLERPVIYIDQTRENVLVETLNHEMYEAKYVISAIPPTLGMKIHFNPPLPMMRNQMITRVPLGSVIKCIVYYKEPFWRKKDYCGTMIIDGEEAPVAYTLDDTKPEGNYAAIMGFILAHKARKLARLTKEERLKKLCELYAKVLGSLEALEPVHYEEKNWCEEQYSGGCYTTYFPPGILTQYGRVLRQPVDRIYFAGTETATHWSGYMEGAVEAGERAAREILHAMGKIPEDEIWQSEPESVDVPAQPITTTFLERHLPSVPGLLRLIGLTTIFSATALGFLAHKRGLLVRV

[7] = system: acid-induced muscle allodynia in rats; assay: Acid-induced muscle allodynia; type: in vivo; details: rat; for Mechanical threshold (grams) ± SEM, left paw (SX) / Mechanical threshold (grams) ± SEM, right paw (DX): day 6 after treatment, OS
[8] = sub-chronic (four days) oral 20 mg/kg once daily, versus vehicle

Compound: c1ccc(-c2ncc3cc(-n4ccnc4)ccc3n2)cc1 [CR4056, 2-phenyl-6-(1H-imidazol-1yl)quinazoline]
- 10 μM CR4056 (% effect), inhibition of specific binding (GABA-A (muscimol site)): 26%
- Activity in enzyme characterization panel (human mTOR kinase): inactive
- Activity in enzyme characterization panel (TNF-α converting enzyme): inactive
- Decrease of total STZ-induced hyperalgesic effect, AUC analysis (0–6 hours) [1]: 84%
- Reduction of mechanical hyperalgesia at 6 hours post-dosing [1]: 58%
- Reversal of STZ-induced mechanical hyperalgesia ([1]; within 30 minutes): completely reversed
- IC50 (human recombinant MAO-A): 0.203 ± 0.0103 µM
- Effect on NE levels, plasma ([2]; oral 20 mg/kg): No effect
- Effect on NE levels, lumbar spinal cord ([2]; single oral dose 20 mg/kg, two hours after dosing): not statistically significant
- Increase of endogenous NE levels, parieto-occipital cortex ([2]; single oral dose 20 mg/kg, two hours after dosing, versus vehicle): 68.2% ± 14.1%
- Increase of NE levels, cerebral cortex [2, 8]: 63.1% ±4.2%
- Increase of NE levels, lumbar spinal cord [2, 8]: 51.3% ± 6.7%
- 10 μM CR4056 (% effect), inhibition of specific binding (I2): 66%
- ED100 (calculated), complete reversion of CFA-induced hyperalgesia [3]: 22.3 mg/kg
- inhibition at 10 µM (D2): 25%
- 10 μM CR4056 (% effect), inhibition of specific binding (Sigma (σ1 + σ2)): 18%
- inhibition at 10 µM (CCK2): 16%
- Concentrations for inhibition of MAO-B specific binding relative to MAO-A (MAO-B; rat cerebral membranes, [3H]Ro 19-6327 15 nM): two orders of magnitude higher
- inhibition at 10 µM (MAO-B; read-out: 10 μM CR4056 (% effect), inhibition of specific binding): 35%
- Activity in enzyme characterization panel [4]: inactive
- Cardiovascular effects (conscious dog): slight hypertensive effects associated with tachycardia
- inhibition at 10 µM (5-HT3): 28%
- Reversal of the decrease in withdrawal threshold caused by capsaicin ([5]; 10 mg/kg oral, P < 0.001 versus vehicle): significantly reversed
- Reversal of the effect of capsaicin ([5]; 30 mg/kg oral): completely reversed
- ED50, capsaicin-induced mechanical hyperalgesia, CR4056 alone ([5]; p.o.): 4.13 mg/kg
- ED100, capsaicin-induced mechanical hyperalgesia ([5]; p.o.): 17.9 mg/kg
- Activity in enzyme characterization panel [6]: inactive
- IC50 (human recombinant MAO-B): > 10 µM
- Times less active as inhibitor of MAO-B activity than of MAO-A (human recombinant MAO-B; human recombinant enzymes): about 100 times
- Reversal of acidic saline induced allodynia ([7]; 20 and 60 mg/kg oral): completely reversed
- Mechanical threshold (grams) ± SEM, left paw (SX) ([7]; 6 mg/kg): 27.9 ± 1.1 grams
- Mechanical threshold (grams) ± SEM, right paw (DX) ([7]; 6 mg/kg): 28.3 ± 1.9 grams
- Mechanical threshold (grams) ± SEM, left paw (SX) ([7]; 20 mg/kg): 37.1 ± 0.8 grams
- Mechanical threshold (grams) ± SEM, right paw (DX) ([7]; 20 mg/kg): 38.4 ± 1.7 grams
- Mechanical threshold (grams) ± SEM, left paw (SX) ([7]; 60 mg/kg): 39.2 ± 1.6 grams
- Mechanical threshold (grams) ± SEM, right paw (DX) ([7]; 60 mg/kg): 37.4 ± 2.1 grams
